From patent US20090270476A1, “PHARMACEUTICAL COMPOSITION FOR TREATMENT OR PREVENTION OF NEPHRITIS AND MANUFACTURING METHOD THEREOF” (priority 2005, published 2009)
Entries after “also recorded” stand apart in the source; their conditions may differ.

Columns and labels:
Format in all cases: in vivo, Wister rats
nephritis model rat [1] = test: Effects of orniplabin on urinary protein, lipid peroxide in blood and organomegaly in nephritis model rat
Experimental: Three-week-old male Wister rats (Charles River) were raised for 6 days with pellet diet (CE-2, Nihon Crea) and then raised with the 20% casein diet for 5 days to be subjected to the experiment. The animals were raised at approximately 22° C., with relative humidity […] under lighting from 8:00 to 20:00.
(§1) 0.6 mL of Anti-rat-glomerular basement membrance rabbit serum was administered into the caudal vein. Next day rabbit γ-globulin (Sigma), and 8 mg/0.2 mL Freund's complete adjuvant (Wako Junyaku) were subcutaneously injected into hinder leg's footpad to cause nephritis (nephritis model rat).
Since anti-serum was injected, the body weight and feed intake were measured every morning and urinary proteins of 24-hour urine was measured every other day, specifically urine was collected in a flask from 9 AM of the day before to 9 AM of the day and the measurement was carried out using commercial protein measurement kit (Bio-Rad, Protein Assay, Bio-Rad). (Refer to Biosci. Biotechnol. Biochem., 65, 1155-1162 (2001))
(§2) The urinary proteins were measured three days after the injection of anti-serum and the rats were grouped according to the measurement values. An orniplabin solution equivalent to 5 mg/Kg concentration was intrapenitoneally injected everyday to the orniplabin administration group since then. Nothing was injected to the control group. Rats of respective groups were dissected to remove blood, liver and kidneys 14 days after nephritis was induced, and weights of the removed materials were measured. Further lipid peroxides of a part of blood obtained were measured using a commercial measurement kit (Wako Junyaku). The normal group represents the untreated group, the control group represents—the nephritis-induced group and SMTP group represents the orniplabin-injected group. Student's t-test of significant difference between two groups was carried out as the level significance is 0.05. Tukey's multiple comparison method was used for the testing of significance between three groups. The data associated with the amount of urinary proteins and the weight of organs are treated with the scale per 100 g of body weight as a benchmark.

nephritis model rat [2] = test: Observation of PAS-stained kidney histologic sections and nephritis score
Experimental: Section samples were prepared from three animals selected according to the variation of urinary protein in respective groups. Periodic acid Schiff (PAS) staining was conducted on the kidney histologic section.
A procedure for PAS staining was; slicing a sampler washing the sample with water after paraffin-removal, soaking the sample in a solution of 1% periodic acid for 10 minutes, and washing again the sample with water; soaking the histologic section prepared in Schiff reagent for 10 to 15 minutes, washing the sample in a staining bat three times for 3 minutes, total for 9 minutes, and washing the sample with water; and then staining the sample with hematoxylin for 1 minute, washing the sample with warm water for 10 minutes, dehydrating and penetrating the sample and then sealing the sample.
Observation of the histologic sample was conducted on renal glomerulus using a microscope with 200× magnifications. The bar in Figs is corresponding to 50 μm.
Fifty (50) glomeruli every three samples of each group were ranked according to damaged levels. The ranks were from normal (rank 1) to the most progressed damage (rank 5) and five grades according to damages were given to provide a score. The average of the scores was decided as the score of the sample (nephritis score).

nephritis model rat [3] = test: Effects of orniplabin administration on plasma components in nephritis model rat
Experimental: as §1, §2
Further effects of orniplabin administration on plasma components were investigated by measuring a variety of concentrations of plasma component, (Normal group, n=6; control group, n=10; and orniplabin-injected group, n=6) The following plasma components were measured; lactate dehydrogenase (LD; PureAuto S LD), […] amino transferase (AST AutoSera S AST), alanine aminotransferase (ALT: AutoSera S ALT), creatine phosphate kinase (CPK; PureAuto S CK), alkaline phosphatase (ALP; AutoSera S ALP), γ-glutamyl transpeptidase (γ-GTP; PureAuto S γ-GT), total bilirubin (BIL: AutoSera BIL-2), glucose (GLU; PureAuto S GLU-R), triglyceride (TG; AutoSera S TG-N), total cholesterol (T-CHO; Choletest CHO), phospholipid (PL; PureAuto S PL), total protein (TP; AutoSera TP), urea nitrogen (UN; PureAuto S UN), albumin (ALB; AutoSera ALB), calcium (CA; AutoSera CA), inorganic phosphoric acid (IP; Clini mate IP-2), (Daiichi Chemical), creatinine (CRE-S; AccursAuto CRE, Sinotest), acetoacetic acid (ACAC; Ketone Test A Sanwa liquid, Sanwa Science Laboratories), 3-hydroxy butyric acid (OHBA; Ketone Test B Sanwa liquidA Sanwa Science Laboratories), free fafty acids (NEFA; AutoSera R NEFA (Daiichi Chemical) and HDL cholesterol (HDL; Cholest-R N HDL (Daichi Chemical) were used to measure. Further Hitachi Amino acid automatic analyzer 7180 (Hitachi) was used.
The comparison results between the control group and the orniplabin-injected group, and the normal group of which average value is as 1 are shown in FIG. 5 to FIG. 8.

[4] = 5 mg/Kg intraperitoneal everyday
[5] = 5 mg/Kg intraperitoneal everyday, 14 days after nephritis induction, weight per 100 g body weight
[6] = renal glomerulus, PAS staining, orniplabin-injected group
[7] = decrease by induction of nephritis
[8] = orniplabin-injected group vs control group

Compound: CC(C)=CCC/C(C)=C/CC[C@@]1(C)Oc2c(c(O)cc3c2CN(CCC[C@@H](C(=O)O)N2Cc4c(cc(O)c5c4O[C@](C)(CC/C=C(\C)CCC=C(C)C)[C@H](O)C5)C2=O)C3=O)C[C@H]1O [orniplabin]
- food intake (nephritis model rat [1]; [4]): without affecting
- increase of body weight (nephritis model rat [1]; [4]): without affecting
- urinary proteins (nephritis model rat [1]; 5 mg/Kg intraperitoneal everyday from day 3, 24-hour urine, vs control group): decreased
- lipid peroxides in serum (nephritis model rat [1]; 5 mg/Kg intraperitoneal everyday, 14 days after nephritis induction, vs control group): decreased
- hypertrophy of kidneys (nephritis model rat [1]; [5]): suppressed
- hypertrophy of liver (nephritis model rat [1]; [5]): suppressed
- nephritis score (nephritis model rat [2]; 50 glomeruli per sample, three samples, rank 1 (normal) to rank 5 (most progressed damage), control group 3.80±0.13): 2.77±0.04
- abnormal histologic hypertrophy of proximal convoluted tubule tissue (nephritis model rat [2]; PAS staining, orniplabin-injected group): not observed
- crescent formation (nephritis model rat [2]; [6]): low level crescent formation
- mesangium proliferation (nephritis model rat [2]; [6]): almost no mesangium proliferation
- concentration of BIL in plasma (nephritis model rat [3]; [7]): prevented or these concentrations were recovered
- concentration of CA in plasma (nephritis model rat [3]; [7]): prevented or these concentrations were recovered
- concentration of GLU in plasma (nephritis model rat [3]; [7]): prevented or these concentrations were recovered
- concentration of IP in plasma (nephritis model rat [3]; [7]): prevented or these concentrations were recovered
- concentration of TP (total proteins) in plasma (nephritis model rat [3]; orniplabin-injected group): recovered to the normal level
- concentration of ACAC in plasma (nephritis model rat [3]; [8]): lower than that of the control group
- concentration of ALB in plasma (nephritis model rat [3]; [8]): almost not different
- concentration of ALP in plasma (nephritis model rat [3]; [8]): not significantly different
- concentration of ALT in plasma (nephritis model rat [3]; [8]): not significantly different
- concentration of AST in plasma (nephritis model rat [3]; [8]): not significantly different
- concentration of CRE-S in plasma (nephritis model rat [3]; [8]): almost not different
- concentration of HDL in plasma (nephritis model rat [3]; [8]): in decreasing trend
- concentration of LD in plasma (nephritis model rat [3]; [8]): not significantly different
- concentration of OHBA in plasma (nephritis model rat [3]; [8]): prevented or these concentrations were recovered; also recorded: higher than that of the control group
- concentration of OK in plasma (nephritis model rat [3]; [8]): not significantly different
- concentration of PL in plasma (nephritis model rat [3]; [8]): in decreasing trend
- concentration of T-CHO in plasma (nephritis model rat [3]; [8]): in decreasing trend
- concentration of TG in plasma (nephritis model rat [3]; [8]): significantly decreased
- concentration of UN in plasma (nephritis model rat [3]; [8]): almost not different
- concentration of γ-GTP in plasma (nephritis model rat [3]; [8]): not significantly different
